Experiments:
5-HT1A receptors = molecular target: T1, 5-HT1A receptors (Rattus norvegicus, UniProt P19327); assay: inhibition of [3H]8-OH-DPAT binding to 5-HT1A receptors in rat hippocampal tissue; conditions: rat hippocampus; for inhibition at 1 µM: at 10^-6 M, [3H]8-OH-DPAT, read-out: % displacement of radio ligand, 5-HT1A; for Ki: [3H]8-OH-DPAT 2 nM, 25° C., 30 min
T1 construct: Hippocampal tissue from the brains of male Sprague-Dawley rats; from tissue; host or cells: rat hippocampus membranes
T1 sequence (P19327 1-422): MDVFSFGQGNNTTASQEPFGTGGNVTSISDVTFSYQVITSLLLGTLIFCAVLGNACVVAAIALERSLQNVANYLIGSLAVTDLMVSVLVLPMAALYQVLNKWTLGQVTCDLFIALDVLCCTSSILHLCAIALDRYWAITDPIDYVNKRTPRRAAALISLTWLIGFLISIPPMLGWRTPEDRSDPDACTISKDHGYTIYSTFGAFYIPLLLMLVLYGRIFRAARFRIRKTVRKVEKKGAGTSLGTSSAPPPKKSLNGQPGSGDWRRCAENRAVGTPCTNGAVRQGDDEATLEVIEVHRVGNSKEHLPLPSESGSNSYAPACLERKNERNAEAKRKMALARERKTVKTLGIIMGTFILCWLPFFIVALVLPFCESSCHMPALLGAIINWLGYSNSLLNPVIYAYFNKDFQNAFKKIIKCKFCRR
Experimental: Hippocampal tissue from the brains of male Sprague-Dawley rats (Charles River; weight range 150-250 g) was homogenised in ice-cold 50 mM Tris-HCl buffer (pH 7.7 when measured at 25° C., 1:40 w/v) and centrifuged at 30,000 g at 4° C. for 10 minutes. The pellet was rehomogenised in the same buffer, incubated at 37° C. for 10 minutes and centrifuged at 30,000 g at 4° C. for 10 minutes. The final pellet was resuspended in 50 mM Tris-HCl buffer (pH 7.7) containing 4 mM CaCl2, 0.1% L-ascorbic acid and 10 μM pargyline hydrochloride (equivalent to 6.25 mg wet weight of tissue/ml) and used immediately in the binding assay. Aliquots (400 μl; equivalent to 2.5 mg wet weight of tissue/tube) of this suspension were added to tubes containing the ligand (50 μl; 2 nM) and distilled water (50 μl total binding) or 5-HT (50 μl; 10 μM; non-specific binding) or test compound (50 μl; at a single concentration of 10^-6 M or at 10 concentrations ranging from 10^-11 -10^-3 M). The ligand was [^3 H]8-hydroxy-2-(dipropylamino)tetralin ([^3 H]8-OH-DPAT) and the mixture was incubated at 25° C. for 30 minutes before the incubation was terminated by rapid filtration.
(§1) The filters were washed with ice-cold Tris-HCl buffer and dried. The filters were punched out into vials, scintillation fluid added and radioactivity determined by liquid scintillation counting. The percentage displacement of specific binding of the tritiated ligand was calculated for the single concentration (10^-6 M) of test compound. Displacement curves were then produced for those compounds which displaced ≥50% of specific binding of the tritiated ligand at 10^-6 M using a range of concentrations of the compound. The concentration which gave 50% inhibition of specific binding (IC50) was obtained from the curve. The inhibition coefficient Ki was then calculated using the formula [formula] in which [ligand] is the concentration of the tritiated ligand used and KD is the equilibrium dissociation constant for the ligand.

α1-adrenoceptors = assay: inhibition of [7-methoxy-3H]prazosin binding to α1-adrenoceptors in rat whole cortical tissue; conditions: rat whole cortex, 30 min; for % displacement of radio ligand, α1: at 10^-6 M, [7-methoxy-3H]prazosin, 1 µM; for Ki: [7-methoxy-3H]prazosin 0.1 nM, 30° C.
Experimental: Whole cortical tissue from the brains of male Charles River CD rats weighing between 150-250 g were homogenised in ice-cold 50 mM Tris-HCl, pH 7.6 (at 25° C.; 1:40 w/v) and centrifuged at 1000 g at 4° C. for 10 minutes. The supernatant was centrifuged at 30,000 g at 4° C. for 10 minutes. The pellet was rehomogenised in 50 mM Tris-HCl, pH 7.6 (1:40 w/v) and centrifuged at 30,000 g at 4° C. for 10 minutes. The final pellet was resuspended in 50 mM Tris-HCl, pH 7.6 (equivalent to 12.5 mg wet weight of tissue/ml) and used immediately in the binding assay. Aliquots (400 μl; equivalent to 5 mg wet weight of tissue/tube) of this suspension were added to tubes containing the ligand (50 μl; 0.1 nM) and distilled water (50 μl; total binding) or phentolamine (50 μl; 5 μM; non-specific binding) or test compound (50 μl; at a single concentration of 10^-6 M or at 10 concentrations ranging from 10^-11 -10^-3 M). The ligand was [7-methoxy-^3 H]prazosin and the mixture was incubated at 30° C. for 30 minutes before the incubation was terminated by rapid filtration.
as §1

D2 dopamine receptors = molecular target: T2, D2 dopamine receptors (Rattus norvegicus, UniProt P61169); assay: inhibition of tritiated (S)-sulpiride binding to D2 dopamine receptors in rat striatal tissue; conditions: rat striatum; for inhibition at 1 µM: at 10^-6 M, tritiated (S)-sulpiride, read-out: % displacement of radio ligand, D2; for Ki: tritiated (S)-sulpiride 1 nM, 4° C., 40 min
T2 construct: Striatal tissue from the brains of male Charles River CD rats; from tissue; host or cells: rat striatum membranes
T2 sequence (P61169 whole entry): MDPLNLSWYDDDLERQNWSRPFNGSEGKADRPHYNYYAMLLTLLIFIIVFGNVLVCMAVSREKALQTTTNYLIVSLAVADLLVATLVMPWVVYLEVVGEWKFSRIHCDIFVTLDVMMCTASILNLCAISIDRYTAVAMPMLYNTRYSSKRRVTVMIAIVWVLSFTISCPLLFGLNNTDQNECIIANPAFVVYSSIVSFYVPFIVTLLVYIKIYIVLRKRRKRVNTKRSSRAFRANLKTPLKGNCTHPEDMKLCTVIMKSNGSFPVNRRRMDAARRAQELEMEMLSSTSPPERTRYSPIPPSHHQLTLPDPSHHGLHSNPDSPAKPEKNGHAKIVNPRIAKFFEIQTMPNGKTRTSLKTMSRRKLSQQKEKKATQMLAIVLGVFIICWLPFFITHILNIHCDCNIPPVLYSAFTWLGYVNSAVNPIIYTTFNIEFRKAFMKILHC
Experimental: Striatal tissue from the brains of male Charles River CD rats weighing between 140-250 g were homogenised in ice-cold 50 mM Tris-HCl buffer (pH 7.7 when measured at 25° C.) and centrifuged at 40,000 g for 10 minutes. The pellet was resuspended in Tris salts buffer (50 mM Tris-HCl buffer containing 120 mM NaCl, 5 mM KCl, 2 mM CaCl2 and 1 mM MgCl2 with the addition of 6 mM ascorbic acid; pH 7.7 when measured at 25° C.), and again centrifuged at 40,000 g for 10 minutes. The final pellet was stored at -80° C. Before each test the pellet was resuspended in Tris salts buffer (equivalent to 2 mg wet weight of tissue/ml). Aliquots (720 μl; equivalent to 1.44 mg wet weight of tissue/tube) of this suspension were then added to tubes containing the ligand (40 μl; 1 nM) and Tris salts buffer (40 μl; total binding) or spiroperidol (40 μl; 10 nM; non-specific binding) or test compound (40 μl; at a single concentration of 10^-6 M or at 6 concentrations ranging from 10^-11 -10^-4 M). The ligand was tritiated (S)-sulpiride and the mixture was incubated at 4° C. for 40 minutes before the incubation was terminated by rapid filtration.
The filters were washed with ice-cold Tris-HCl buffer and dried. The filters were punched out in to vials, scintillation fluid added and were left for about 20 hours before being counted by scintillation spectrophotometry. The percentage displacement of specific binding of the tritiated ligand was calculated for the single concentration (10^-6 M) of test compound. Displacement curves were then produced over a range of concentrations for those compounds which displaced ≥50% of specific binding of the tritiated ligand at 10^-6 M. The concentration which gave a 50% inhibition of specific binding (IC50) was obtained from the curve. The inhibition coefficient Ki was then calculated using the formula [formula] in [ligand] is the concentration of the tritiated ligand used and KD is the 2 equilibrium dissociation constant for the ligand.

**Q.** Which results are given for `O=C(NCC1CCN(C[C@H]2COc3cccc(C(F)(F)F)c3O2)CC1)c1cncc(Br)c1` [Example 49, (S)-5-bromo-N-{[1-(8-trifluoromethyl-1,4-benzodioxan-2-ylmethyl)-4-piperidyl]methyl}pyridine-3-carboxamide]?
**A.** inhibition at 1 µM (5-HT1A receptors): 88%; % displacement of radio ligand, α1 (α1-adrenoceptors): 93%; inhibition at 1 µM (D2 dopamine receptors): 99%

**Q.** `CSc1ncccc1C(=O)NCC1CCN(C[C@H]2COc3cccc(Cl)c3O2)CC1` [Example 51] was tested. Which inhibition at 1 µM (5-HT1A receptors) did it give?
**A.** 95%

**Q.** What about the “% displacement of radio ligand, α1” value (α1-adrenoceptors) of the same molecule?
**A.** 98%

**Q.** What about the inhibition at 1 µM (D2 dopamine receptors) of the same molecule?
**A.** 101%

**Q.** What does the source list for `CSc1ncccc1C(=O)NCC1CCN(C[C@H]2COc3cccc(C(F)(F)F)c3O2)CC1` [Example 48, (S)-2-(methylthio)-N-{[1-(8-trifluoromethyl-1,4-benzodioxan-2-ylmethyl)-4-piperidyl]methyl}pyridine-3-carboxamide]?
**A.** inhibition at 1 µM (5-HT1A receptors): 80%; % displacement of radio ligand, α1 (α1-adrenoceptors): 93%; inhibition at 1 µM (D2 dopamine receptors): 101%

**Q.** Which results are given for `O=C(NCC1CCN(C[C@H]2COc3ccc(Cl)cc3O2)CC1)c1ccc(-n2cccc2)nc1` [Example 40, (S)-N-{[1-(7-chloro-1,4-benzodioxan-2-ylmethyl)-4-piperidyl]methyl}-6-(1-pyrrolyl)pyridine-3-carboxamide]?
**A.** inhibition at 1 µM (5-HT1A receptors): 87%; % displacement of radio ligand, α1 (α1-adrenoceptors): 60%; inhibition at 1 µM (D2 dopamine receptors): 91%

**Q.** Which inhibition at 1 µM (5-HT1A receptors) does the source give for `CSc1ncccc1C(=O)NCC1CCN(C[C@H]2COc3ccc(Cl)cc3O2)CC1` [Example 41, (S)-N-{[1-(7-chloro-1,4-benzodioxan-2-ylmethyl)-4-piperidyl]methyl}-2-(methylthio)pyridine-3-carboxamide] here?
**A.** 68%

**Q.** And the “% displacement of radio ligand, α1” value (α1-adrenoceptors)?
**A.** 29%

**Q.** What about the inhibition at 1 µM (D2 dopamine receptors) of the same molecule?
**A.** 70%

**Q.** `O=C(NCC1CCN(C[C@H]2COc3ccc(Br)cc3O2)CC1)c1cncc(Br)c1` [Example 39, (S)-5-bromo-N-{[1-(7-bromo-1,4-benzodioxan-2-ylmethyl)-4-piperidyl]methyl}pyridine-3-carboxamide] was tested. Which inhibition at 1 µM (5-HT1A receptors) did it give?
**A.** 85%

**Q.** And the “% displacement of radio ligand, α1” value (α1-adrenoceptors)?
**A.** 43%

**Q.** And the inhibition at 1 µM (D2 dopamine receptors)?
**A.** 87%

**Q.** With `CSc1ncccc1C(=O)NCC1CCN(C[C@H]2COc3ccc(Br)cc3O2)CC1` [Example 38, (S)-N-{[1-(7-bromo-1,4-benzodioxan-2-ylmethyl)-4-piperidyl]methyl}-2-(methylthio)pyridine-3-carboxamide] as the molecule, how does the inhibition at 1 µM (5-HT1A receptors) read?
**A.** 88%

**Q.** And the “% displacement of radio ligand, α1” value (α1-adrenoceptors)?
**A.** 51%

**Q.** And the inhibition at 1 µM (D2 dopamine receptors)?
**A.** 99%

**Q.** What does the source list for `Cc1ncccc1C(=O)NCC1CCN(C[C@H]2COc3ccc(Br)cc3O2)CC1` [Example 36, (S)-N-{[1-(7-bromo-1,4-benzodioxan-2-ylmethyl)-4-piperidyl]methyl}-2-methylpyridine-3-carboxamide]?
**A.** inhibition at 1 µM (5-HT1A receptors): 80%; % displacement of radio ligand, α1 (α1-adrenoceptors): 54%; inhibition at 1 µM (D2 dopamine receptors): 98%

**Q.** With `Nc1ncccc1C(=O)NCC1CCN(C[C@H]2COc3cccc(OS(=O)(=O)C(F)(F)F)c3O2)CC1` [Example 28, (S)-2-amino-N-{[1-(8-trifluoromethanesulphonyloxy-1,4-benzodioxan-2-ylmethyl)-4-piperidyl]methyl}pyridine-3-carboxamide] as the molecule, how does the inhibition at 1 µM (5-HT1A receptors) read?
**A.** 96%

**Q.** What about the “% displacement of radio ligand, α1” value (α1-adrenoceptors) of the same molecule?
**A.** 98%

**Q.** What about the inhibition at 1 µM (D2 dopamine receptors) of the same molecule?
**A.** 101%

**Q.** How did the Ki (5-HT1A receptors) turn out when `Cc1cccc(C(=O)NCC2CCN(C[C@H]3COc4ccc(Cl)cc4O3)CC2)n1` [Example 25, (S)-N-{[1-(7-chloro-1,4-benzodioxan-2-ylmethyl)-4-piperidyl]methyl}-6-methylpyridine-2-carboxamide] was run?
**A.** 47 nM

**Q.** What about the Ki (α1-adrenoceptors) of the same molecule?
**A.** 233 nM

**Q.** And the Ki (D2 dopamine receptors)?
**A.** 33 nM

**Q.** For `Cc1ccc2c(c1)O[C@@H](CN1CCC(CNC(=O)c3cccnc3C)CC1)CO2` [Example 31, (S)-2-methyl-N-{[1-(7-methyl-1,4-benzodioxan-2-ylmethyl)-4-piperidyl]-methyl}pyridine-3-carboxamide], which inhibition at 1 µM (5-HT1A receptors) is on record?
**A.** 63%

**Q.** And the “% displacement of radio ligand, α1” value (α1-adrenoceptors)?
**A.** 41%

**Q.** And the inhibition at 1 µM (D2 dopamine receptors)?
**A.** 68%

**Q.** Which results are given for `O=C(NCC1CCN(C[C@H]2COc3cccc(Cl)c3O2)CC1)c1cccnc1` [Example 24, (S)-N-{[1-(8-chloro-1,4-benzodioxan-2-ylmethyl)-4-piperidyl]methyl}pyridine-3-carboxamide]?
**A.** Ki (5-HT1A receptors): 34 nM; Ki (α1-adrenoceptors): 9 nM; Ki (D2 dopamine receptors): 16 nM

**Q.** For `O=C(NCC1CCN(C[C@H]2COc3ccc(Br)cc3O2)CC1)c1cccnc1` [Example 35, (S)-N-{[1-(7-bromo-1,4-benzodioxan-2-ylmethyl)-4-piperidyl]methyl}pyridine-3-carboxamide], which inhibition at 1 µM (5-HT1A receptors) is on record?
**A.** 95%

**Q.** And the “% displacement of radio ligand, α1” value (α1-adrenoceptors)?
**A.** 73%

**Q.** What about the inhibition at 1 µM (D2 dopamine receptors) of the same molecule?
**A.** 101%

**Q.** For `O=C(NCC1CCN(C[C@H]2COc3cccc(Cl)c3O2)CC1)c1cncc(Br)c1` [Example 52, (S)-5-bromo-N-{[1-(8-chloro-1,4-benzodioxan-2-ylmethyl)-4-piperidyl]methyl}pyridine-3-carboxamide], which inhibition at 1 µM (5-HT1A receptors) is on record?
**A.** 95%

**Q.** What about the “% displacement of radio ligand, α1” value (α1-adrenoceptors) of the same molecule?
**A.** 97%

**Q.** And the inhibition at 1 µM (D2 dopamine receptors)?
**A.** 101%

**Q.** `O=C(NCC1CCN(C[C@H]2COc3cccc(Cl)c3O2)CC1)c1ccc(-n2cccc2)nc1` [Example 50, (S)-N-{[1-(8-chloro-1,4-benzodioxan-2-ylmethyl)-4-piperidyl)methyl}-6-(1-pyrrolyl)pyridine-3-carboxamide] was tested. Which inhibition at 1 µM (5-HT1A receptors) did it give?
**A.** 97%

**Q.** What about the “% displacement of radio ligand, α1” value (α1-adrenoceptors) of the same molecule?
**A.** 98%

**Q.** And the inhibition at 1 µM (D2 dopamine receptors)?
**A.** 101%
